Assay results published in PubChem BioAssay (NCI).
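Where inhibition never reached the appropriate level, the endpoint shown equals the highest concentration tested. Otherwise, values were interpolated linearly from a five-concentration, 48-hour dose response in 96-well plates. TGI is the concentration that stops growth completely.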

Legend:
Experiment in all cases: NCI tumour cell line growth inhibition, 48 h
SN12C renal = tested on: SN12C renal
COLO 205 colon = tested on: COLO 205 colon
SNB-75 CNS = tested on: SNB-75 CNS
DMS 273 small cell lung = tested on: DMS 273 small cell lung
HCC-2998 colon = tested on: HCC-2998 colon
KM20L2 colon = tested on: KM20L2 colon
SNB-78 CNS = tested on: SNB-78 CNS
UACC-62 melanoma = tested on: UACC-62 melanoma
NCI-H460 lung = tested on: NCI-H460 lung
UACC-257 melanoma = tested on: UACC-257 melanoma
K-562 leukemia = tested on: K-562 leukemia
LOX IMVI melanoma = tested on: LOX IMVI melanoma
OVCAR-3 ovarian = tested on: OVCAR-3 ovarian
UO-31 renal = tested on: UO-31 renal
CCRF-CEM leukemia = tested on: CCRF-CEM leukemia
DLD-1 colon = tested on: DLD-1 colon
NCI-H23 lung = tested on: NCI-H23 lung
OVCAR-4 ovarian = tested on: OVCAR-4 ovarian
SNB-19 CNS = tested on: SNB-19 CNS
SK-MEL-5 melanoma = tested on: SK-MEL-5 melanoma
SR leukemia = tested on: SR leukemia
OVCAR-5 ovarian = tested on: OVCAR-5 ovarian
CAKI-1 renal = tested on: CAKI-1 renal
MALME-3M melanoma = tested on: MALME-3M melanoma
XF 498 CNS = tested on: XF 498 CNS
SW-620 colon = tested on: SW-620 colon
SK-MEL-28 melanoma = tested on: SK-MEL-28 melanoma
M14 melanoma = tested on: M14 melanoma
A549 NSCLC = tested on: A549 NSCLC
ACHN renal = tested on: ACHN renal
NCI-H226 lung = tested on: NCI-H226 lung
U251 CNS = tested on: U251 CNS
SF-539 CNS = tested on: SF-539 CNS
MOLT-4 leukemia = tested on: MOLT-4 leukemia
RXF-631 renal = tested on: RXF-631 renal
HCT-15 colon = tested on: HCT-15 colon
HL-60(TB) leukemia = tested on: HL-60(TB) leukemia
SF-268 CNS = tested on: SF-268 CNS
HT29 colon = tested on: HT29 colon
DMS 114 small cell lung = tested on: DMS 114 small cell lung
OVCAR-8 ovarian = tested on: OVCAR-8 ovarian
M19-MEL melanoma = tested on: M19-MEL melanoma
786-0 renal = tested on: 786-0 renal
NCI-H522 lung = tested on: NCI-H522 lung
HCT-116 colon = tested on: HCT-116 colon
SF-295 CNS = tested on: SF-295 CNS
HOP-92 NSCLC = tested on: HOP-92 NSCLC
RXF 393 renal = tested on: RXF 393 renal
HOP-62 NSCLC = tested on: HOP-62 NSCLC
KM12 colon = tested on: KM12 colon
RPMI-8226 leukemia = tested on: RPMI-8226 leukemia
SK-OV-3 ovarian = tested on: SK-OV-3 ovarian
IGROV1 ovarian = tested on: IGROV1 ovarian
LXFL 529 NSCLC = tested on: LXFL 529 NSCLC

Measured: TGI

O=NN/C(=C1\Nc2ccc([N+](=O)[O-])cc2NC1=O)C(O)c1ccc([N+](=O)[O-])cc1 (centres undefined)
> 100 µM: all assays above
